Starred links: 1 amine or outer side, 2 acyl side, 3 side chain; linkers in the order of their positions; H or OH if unused. Positions of bridges follow the written chain, without caps; N, C: chain ends. Non-standard residues stand in square brackets, D forms with d. Residues, ends and D or L forms follow the SMILES beside them. Chains are numbered I, II in the order given. Actinocin(9to1) = Cc1c2oc3c(C)ccc(C(=O)[*:1])c3nc-2c(C(=O)[*:2])c(N)c1=O; NMeV = CN[C@H](C(=O)O)C(C)C; Sar = CNCC(=O)O
Assays:
USP1 [1] = test: USP1 protein level after blocking transcription in 293T cells; type: cell-based, human; conditions: 5 μg/ml
Protocol: (§1) A) HeLa cells expressing exogenous Flag-HA-USP1 were irradiated with 50 J/m^2 and samples were taken at the indicated times. Flag-HA-USP1 was immunoprecipitated using anti-Flag antibodies and the immunoprecipitates were analyzed by immunoblotting using the indicated antibodies with the exception of Flag-HA-USP1, which was detected using the mouse monoclonal 12CA5 antibody. B) HeLa cells were UV irradiated with 50 J/m^2 (UVC) and samples were taken at the indicated times. Protein samples were analyzed by immunoblotting using the indicated antibodies. C) 293T cells were UV irradiated with 100 J/m^2 (UVC) and samples were taken at the indicated times. Total RNA was prepared an analyzed by Northern blot analysis using the indicated probes. D) Quantification of the USP1 and total RNA intensities from C. E) 293T cells were treated with 5 μg/ml Actinomycin D and samples were taken at the indicated times. Protein samples were analyzed by immunoblotting using the indicated antibodies.
(§2) UAF1 protein levels were not affected by UV irradiation (FIG. 6A and FIG. 6B). It was speculated that one regulatory event that may reduce USP1 activity after DNA damage may be transcriptional down-regulation of the USP1 gene. To test this hypothesis, USP1 mRNA levels were measured in 293T cells after UV irradiation. […]

UAF1 = UAF1 protein level after blocking transcription in 293T cells; type: cell-based, human; conditions: 5 μg/ml
Protocol: as §1, §2

USP1 mRNA = USP1 mRNA level after transcription inhibition (Northern blot); type: cell-based, human; conditions: Actinomycin D, UV or both; data not shown
Protocol: Northern blot analysis was performed as described using the 394 nt PstI-EcoRV fragment of the USP1 cDNA (Cohn, M. A., Kramerov, D., Hulgaard, E. F., and Lukanidin, E. M. (1997). The differentiation antigen Ly-6E.1 is expressed in mouse metastatic tumor cell lines. FEBS Lett 403, 181-185).
UAF1 protein levels were not affected by UV irradiation (FIG. 6A and FIG. 6B). It was speculated that one regulatory event that may reduce USP1 activity after DNA damage may be transcriptional down-regulation of the USP1 gene. To test this hypothesis, USP1 mRNA levels were measured in 293T cells after UV irradiation. A rapid decrease of the USP1 mRNA (FIG. 6C) was observed, with kinetics reflecting the decrease of USP1 protein (FIG. 6B). […] To test whether active mRNA degradation also play a role in addition to transcriptional regulation, transcription was inhibited by Actinomycin D, an effective inhibitor of RNA polymerase II, cells were irradiated with UV, or both treatments were combined. […] Importantly, the level of full length USP1 decreased with kinetics similar to those in cells treated with UV irradiation (FIG. 6B).

Ubiquitin-AMC = test: In vitro enzymatic activity and kinetics of purified USP1, UAF1 and USP1/UAF1 with Ubiquitin-AMC; type: biochemical, human
Protocol: A) Coomassie blue stain of purified USP1 and UAF1 proteins, expressed either alone of simultaneously as a protein complex in Sf9 cells. B) The in vitro enzymatic activity of USP1, UAF1 or the USP1/UAF1 complex was assayed using Ub-AMC as a substrate. The concentration of each protein was 10 nM. C) Calculation of slopes of the curves in B. The activity of USP1 was arbitrarily set to a value of 1. Relative values for UAF1 and USP1/UAF1 were −0.25 and 36.25, respectively. The slightly negative value for UAF1 is a result of photo bleaching during the experiment. D) UAF1 activates USP1 instantly upon binding in vitro. The enzymatic activity of the USP1 enzyme was monitored as UAF1 was added to the reaction. The concentrations of both USP1 and UAF1 were 2 nM. E) Km and kcat values of the USP1 enzyme and the USP1/UAF1 complex were determined by measuring the substrate conversion at constant enzyme concentration (20 nM for USP1 and 2 nM for the USP1/UAF1 complex) and various substrate concentrations (final concentrations of Ub-AMC of 0.6 μM, 0.75 μM, 1 μM, 1.5 μM and 3 μM for USP1; and 0.42 μM, 0.525 μM, 0.7 μM, 1.05 μM, 2.1 μM […] for the USP1/UAF1 complex). Km and kcat values were calculated by plotting the obtained conversion values in a double-reciprocal Lineweaver-Burk plot. Standard deviation of Km and kcat were calculated from 5-6 independent repeats of the above measurements and are shown in brackets in the table.
Transcription/translation in rabbit reticulocyte was performed according to manufactures recommendations with the exception that the reactions were performed at 30° C. (Promega). In vitro enzymatic assays in the presence of 5 μM Ubiquitin-VS (Ubiquitin-Vinyl Sulfone; U-202; Boston Biochem) were performed 30° C. In vitro enzymatic assays using Ubiquitin-AMC (Ubiquitin-7-amido-4-methylcoumarin; U-550; Boston Biochem) were performed in 50-100 μl reaction buffer (20 mM HEPES-KOH pH 7.8, 20 mM NaCl, 0.1 mg/ml Ovalbumin (A7641; Sigma), 0.5 mM EDTA and 10 mM DTT) at 37° C. Fluorescence was monitored in a FluoStar Galaxy Fluorometer (BMG Labtech Inc.). In vitro deubiquitination reactions of Ub-FANCD2 were performed in 10 μl reaction buffer (90 mM Tris-HCl pH 8.0, 50 mM NaCl, 0.03% NP-40, 4 mg/ml BSA and 2 mM DTT) for 2 h at 30° C.
The enzymatic activity of the purified proteins was assayed using fluorogenic Ubiquitin-AMC as a substrate. […] The activity of the USP1/UAF1 heterodimer was about 30-fold higher than the activity of USP1 alone (FIG. 3C).
In order to better understand the enzymatic consequences of the complex-formation between UAF1 and USP1, the kinetic parameters of the USP1 enzyme alone and the UAF1/USP1 complex were determined. […] This mechanism of activation contrasts with that of another deubiquitinating enzyme, Uch37, which is involved in proteasome-mediated protein degradation. Uch37 is activated by the Adrm1 protein. […] Nat Cell Biol 8, 994-1002).

USP1 [2] = target: T1, USP1 (Homo sapiens, UniProt O94782, G670A/G671A); test: Activation of USP1 enzymatic activity in vitro by UAF1 wild type or mutant protein; type: biochemical; conditions: all proteins 10 nM, Ub-AMC
T1 construct: His tag (N); made in house; host or cells: Sf9 insect cells
T1 sequence (O94782 1-785 G670A/G671A): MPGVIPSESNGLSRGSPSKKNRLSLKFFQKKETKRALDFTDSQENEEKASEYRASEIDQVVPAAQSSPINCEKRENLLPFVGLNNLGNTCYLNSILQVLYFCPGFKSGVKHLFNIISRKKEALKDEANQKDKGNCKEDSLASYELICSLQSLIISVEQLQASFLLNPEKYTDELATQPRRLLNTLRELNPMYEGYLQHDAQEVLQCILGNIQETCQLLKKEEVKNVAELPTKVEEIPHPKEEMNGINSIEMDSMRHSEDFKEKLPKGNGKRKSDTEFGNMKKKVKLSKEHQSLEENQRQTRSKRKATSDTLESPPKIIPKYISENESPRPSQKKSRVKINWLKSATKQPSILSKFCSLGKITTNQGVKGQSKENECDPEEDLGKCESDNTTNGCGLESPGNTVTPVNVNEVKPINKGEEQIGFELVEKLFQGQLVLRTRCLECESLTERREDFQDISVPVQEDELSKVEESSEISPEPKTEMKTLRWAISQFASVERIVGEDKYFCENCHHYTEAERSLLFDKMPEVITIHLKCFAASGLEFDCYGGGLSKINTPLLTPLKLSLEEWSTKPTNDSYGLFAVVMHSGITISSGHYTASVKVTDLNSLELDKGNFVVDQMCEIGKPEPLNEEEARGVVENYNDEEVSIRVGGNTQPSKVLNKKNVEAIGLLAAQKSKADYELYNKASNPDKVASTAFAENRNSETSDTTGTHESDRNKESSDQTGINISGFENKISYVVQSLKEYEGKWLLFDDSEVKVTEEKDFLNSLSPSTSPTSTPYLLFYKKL
Protocol: A) Scheme of wild type UAF1 and deletion mutants thereof. B) Flag-tagged deletion mutants of UAF1 were transiently expressed in 293T cells. The Flag-tagged proteins were immunoprecipitated from cell lysates using anti-Flag antibodies. The immunoprecipitates were analyzed using the indicated antibodies. C) A mutant protein of UAF1 where the second WD40 repeat has been deleted (UAF1-ΔWD2) fails to activate USP1 enzymatic activity in vitro. Strep-tagged UAF1-ΔWD2 was expressed and purified from Sf9 insect cells. The enzymatic activity of the USP1 enzyme was monitored as UAF1 wild type or mutant proteins was added to the reaction. The concentrations of all proteins were 10 nM.
The above experiments were performed using a preformed USP1/UAF1 complex. To gain further insight into the dynamics of USP1/UAF1 complex formation and USP1 activation, the kinetics of UAF1 binding and activation of USP1 were investigated. An in vitro enzymatic reaction of USP1 was set up using Ubiquitin-AMC as a substrate. Ten minutes into the reaction, during the stable and low substrate-turnover, either buffer or purified UAF1 protein was added in an equimolar amount to USP1. […] Given the affinity between the two proteins, it was predicted that as USP1 is synthesized in the cell, it rapidly forms a complex with UAF1. If UAF1 is not available, the protein is destabilized and degraded. […]

## Cc1c2oc3c(C)ccc(C(=O)N[C@@H]4C(=O)N[C@H](C(C)C)C(=O)N5CCC[C@H]5C(=O)N(C)CC(=O)N(C)[C@@H](C(C)C)C(=O)O[C@@H]4C)c3nc-2c(C(=O)N[C@@H]2C(=O)N[C@H](C(C)C)C(=O)N3CCC[C@H]3C(=O)N(C)CC(=O)N(C)[C@@H](C(C)C)C(=O)O[C@@H]2C)c(N)c1=O [Actinomycin D] (I: T[dV]P[Sar][NMeV] / II: T[dV]P[Sar][NMeV]; ester I:1-I:C, II:1-II:C; linker I:N-II:N via Actinocin(9to1))
USP1 [1]
  USP1 protein levels over time: decrease of USP1 protein levels over time
UAF1
  level of UAF1 protein: remained unchanged
USP1 mRNA
  USP1 mRNA level: decreased with similar kinetics in all three cases

## UAF1: purified USP1 Associated Factor 1, WD40 repeat protein (SEQ ID NO:4)
Ubiquitin-AMC; 10 nM each protein
  relative activity (slope of Ub-AMC curve), USP1 set to 1: −0.25
Ubiquitin-AMC; purified protein alone
  deubiquitinating activity on Ubiquitin-AMC: no detectable deubiquitinating activity
USP1 [2]
  stimulation of USP1 enzymatic activity: able to stimulate the enzymatic activity of USP1

From US7754463B2, “Inhibitors of USP1 Deubiquitinating Enzyme Complex” (Dana-Farber Cancer Institute, priority 2006, dated 2010)
